Test results as given in PubChem BioAssay (NCI).
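Where inhibition never reached the appropriate level, the endpoint shown equals the highest concentration tested. Otherwise, values were interpolated linearly from a five-concentration, 48-hour dose response in 96-well plates. TGI denotes the concentration required for complete inhibition of growth.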

Experiments:
Assay in all cases: NCI tumour cell line growth inhibition, 48 h
RPMI-8226 leukemia = test system: RPMI-8226 leukemia
HCC-2998 colon = test system: HCC-2998 colon
HS 578T breast = test system: HS 578T breast
MDA-MB-231 breast = test system: MDA-MB-231 breast
MCF7 breast = test system: MCF7 breast
KM12 colon = test system: KM12 colon
DU-145 prostate = test system: DU-145 prostate
HOP-62 NSCLC = test system: HOP-62 NSCLC
RXF 393 renal = test system: RXF 393 renal
NCI/ADR-RES ovarian = test system: NCI/ADR-RES ovarian
K-562 leukemia = test system: K-562 leukemia
T-47D breast = test system: T-47D breast
SF-295 CNS = test system: SF-295 CNS
LOX IMVI melanoma = test system: LOX IMVI melanoma
OVCAR-4 ovarian = test system: OVCAR-4 ovarian
NCI-H226 lung = test system: NCI-H226 lung
PC-3 prostate = test system: PC-3 prostate
COLO 205 colon = test system: COLO 205 colon
SNB-19 CNS = test system: SNB-19 CNS
M14 melanoma = test system: M14 melanoma
SK-MEL-2 melanoma = test system: SK-MEL-2 melanoma
CAKI-1 renal = test system: CAKI-1 renal
SK-OV-3 ovarian = test system: SK-OV-3 ovarian
NCI-H522 lung = test system: NCI-H522 lung
A549 NSCLC = test system: A549 NSCLC
HT29 colon = test system: HT29 colon
HCT-116 colon = test system: HCT-116 colon
SNB-75 CNS = test system: SNB-75 CNS
MDA-N = test system: MDA-N
SF-268 CNS = test system: SF-268 CNS
HOP-92 NSCLC = test system: HOP-92 NSCLC
SW-620 colon = test system: SW-620 colon
OVCAR-5 ovarian = test system: OVCAR-5 ovarian
MDA-MB-435 = test system: MDA-MB-435
SK-MEL-5 melanoma = test system: SK-MEL-5 melanoma
SR leukemia = test system: SR leukemia
NCI-H460 lung = test system: NCI-H460 lung
A498 renal = test system: A498 renal
UACC-62 melanoma = test system: UACC-62 melanoma
EKVX NSCLC = test system: EKVX NSCLC
MOLT-4 leukemia = test system: MOLT-4 leukemia
786-0 renal = test system: 786-0 renal
ACHN renal = test system: ACHN renal
HL-60(TB) leukemia = test system: HL-60(TB) leukemia
HCT-15 colon = test system: HCT-15 colon
OVCAR-8 ovarian = test system: OVCAR-8 ovarian
SF-539 CNS = test system: SF-539 CNS
TK-10 renal = test system: TK-10 renal
SN12C renal = test system: SN12C renal
IGROV1 ovarian = test system: IGROV1 ovarian
UACC-257 melanoma = test system: UACC-257 melanoma
U251 CNS = test system: U251 CNS
MALME-3M melanoma = test system: MALME-3M melanoma
UO-31 renal = test system: UO-31 renal
NCI-H23 lung = test system: NCI-H23 lung
SK-MEL-28 melanoma = test system: SK-MEL-28 melanoma
OVCAR-3 ovarian = test system: OVCAR-3 ovarian
CCRF-CEM leukemia = test system: CCRF-CEM leukemia

Q: Which results are given for `Cc1ccc(C(=O)CC(O)(C(F)(F)F)C(F)(F)F)cc1[N+](=O)[O-]`?
A: TGI (RPMI-8226 leukemia): 69.4 µM; TGI (HCC-2998 colon): 12.9 µM; TGI (HS 578T breast): 42.6 µM; TGI (MDA-MB-231 breast): 21.5 µM; TGI (MCF7 breast): 11 µM; TGI (KM12 colon): 6.31 µM; TGI (DU-145 prostate): 13.7 µM; TGI (HOP-62 NSCLC): 29.2 µM; TGI (RXF 393 renal): 27.1 µM; TGI (NCI/ADR-RES ovarian): 44.2 µM; TGI (K-562 leukemia): > 28.2 µM; TGI (T-47D breast): 38.9 µM; TGI (SF-295 CNS): 19.7 µM; TGI (LOX IMVI melanoma): 5.22 µM; TGI (OVCAR-4 ovarian): 30.7 µM; TGI (NCI-H226 lung): 38.7 µM; TGI (PC-3 prostate): 27.2 µM; TGI (COLO 205 colon): 36.5 µM; TGI (SNB-19 CNS): 22.6 µM; TGI (M14 melanoma): 17.9 µM; TGI (SK-MEL-2 melanoma): 34 µM; TGI (CAKI-1 renal): 4.58 µM; TGI (SK-OV-3 ovarian): 32.2 µM; TGI (NCI-H522 lung): 1.19 µM; TGI (A549 NSCLC): 33 µM; TGI (HT29 colon): 4.12 µM; TGI (HCT-116 colon): 12.1 µM; TGI (SNB-75 CNS): 33.2 µM; TGI (MDA-N): 28.2 µM; TGI (SF-268 CNS): 31.4 µM; TGI (HOP-92 NSCLC): 22.3 µM; TGI (SW-620 colon): 42.8 µM; TGI (OVCAR-5 ovarian): 33.4 µM; TGI (MDA-MB-435): 22.5 µM; TGI (SK-MEL-5 melanoma): 30.8 µM; TGI (SR leukemia): 14.3 µM; TGI (NCI-H460 lung): 25.1 µM; TGI (A498 renal): 35.8 µM; TGI (UACC-62 melanoma): 21.9 µM; TGI (EKVX NSCLC): 31.7 µM; TGI (MOLT-4 leukemia): 68.5 µM; TGI (786-0 renal): 25.9 µM; TGI (ACHN renal): 28.9 µM; TGI (HL-60(TB) leukemia): 4.41 µM; TGI (HCT-15 colon): 13.6 µM; TGI (OVCAR-8 ovarian): 25.9 µM; TGI (SF-539 CNS): 31.7 µM; TGI (TK-10 renal): 33.3 µM; TGI (SN12C renal): 25 µM; TGI (IGROV1 ovarian): 11.2 µM; TGI (UACC-257 melanoma): 9.39 µM; TGI (U251 CNS): 31.2 µM; TGI (MALME-3M melanoma): 31.8 µM; TGI (UO-31 renal): 10.6 µM; TGI (NCI-H23 lung): 23.7 µM; TGI (SK-MEL-28 melanoma): 23.4 µM; TGI (OVCAR-3 ovarian): 6.44 µM

Q: Which TGI (RPMI-8226 leukemia) does the source give for `CC1=NN(c2cccc(Cl)c2)C2(C1=Cc1ccccc1)C(Cl)C(=O)N2c1nc2ccccc2s1` (stereo not drawn) here?
A: > 100 µM

Q: And the TGI (HCC-2998 colon)?
A: 31.1 µM

Q: And the TGI (HS 578T breast)?
A: > 100 µM

Q: What about the TGI (MDA-MB-231 breast) of the same compound?
A: 51.3 µM

Q: What about the TGI (MCF7 breast) of the same compound?
A: 70.6 µM

Q: What about the TGI (KM12 colon) of the same compound?
A: 33.7 µM

Q: What about the TGI (DU-145 prostate) of the same compound?
A: 33.2 µM

Q: And the TGI (HOP-62 NSCLC)?
A: 45.3 µM

Q: And the TGI (RXF 393 renal)?
A: 28 µM

Q: What about the TGI (NCI/ADR-RES ovarian) of the same compound?
A: 48.7 µM

Q: And the TGI (K-562 leukemia)?
A: > 100 µM

Q: What about the TGI (T-47D breast) of the same compound?
A: 59.9 µM

Q: What about the TGI (SF-295 CNS) of the same compound?
A: 52.3 µM

Q: What about the TGI (LOX IMVI melanoma) of the same compound?
A: 64 µM

Q: And the TGI (OVCAR-4 ovarian)?
A: 64.7 µM

Q: And the TGI (NCI-H226 lung)?
A: 67.8 µM

Q: And the TGI (PC-3 prostate)?
A: 37.6 µM

Q: What about the TGI (M14 melanoma) of the same compound?
A: 46.2 µM

Q: What about the TGI (CCRF-CEM leukemia) of the same compound?
A: > 100 µM

Q: What about the TGI (SK-MEL-2 melanoma) of the same compound?
A: 38.5 µM

Q: What about the TGI (CAKI-1 renal) of the same compound?
A: 41.9 µM

Q: What about the TGI (SK-OV-3 ovarian) of the same compound?
A: 52.3 µM

Q: What about the TGI (NCI-H522 lung) of the same compound?
A: 36 µM

Q: What about the TGI (HT29 colon) of the same compound?
A: 40.5 µM

Q: And the TGI (HCT-116 colon)?
A: 30.3 µM

Q: What about the TGI (MDA-N) of the same compound?
A: 41.3 µM

Q: And the TGI (SF-268 CNS)?
A: 97.6 µM

Q: What about the TGI (HOP-92 NSCLC) of the same compound?
A: 31.6 µM

Q: And the TGI (SW-620 colon)?
A: 42.4 µM

Q: What about the TGI (OVCAR-5 ovarian) of the same compound?
A: 55.8 µM

Q: What about the TGI (MDA-MB-435) of the same compound?
A: 41.1 µM

Q: What about the TGI (SK-MEL-5 melanoma) of the same compound?
A: 32.5 µM

Q: What about the TGI (SR leukemia) of the same compound?
A: 67.3 µM

Q: What about the TGI (NCI-H460 lung) of the same compound?
A: 28.5 µM

Q: What about the TGI (A498 renal) of the same compound?
A: 42.8 µM

Q: What about the TGI (EKVX NSCLC) of the same compound?
A: > 100 µM

Q: And the TGI (MOLT-4 leukemia)?
A: 85.9 µM

Q: What about the TGI (786-0 renal) of the same compound?
A: 32.9 µM

Q: What about the TGI (ACHN renal) of the same compound?
A: 42.4 µM

Q: What about the TGI (HL-60(TB) leukemia) of the same compound?
A: 66.4 µM

Q: And the TGI (HCT-15 colon)?
A: 31.5 µM

Q: And the TGI (OVCAR-8 ovarian)?
A: > 100 µM

Q: What about the TGI (SF-539 CNS) of the same compound?
A: > 100 µM

Q: And the TGI (TK-10 renal)?
A: > 100 µM

Q: And the TGI (IGROV1 ovarian)?
A: 43.7 µM

Q: What about the TGI (UACC-257 melanoma) of the same compound?
A: 74.7 µM

Q: What about the TGI (U251 CNS) of the same compound?
A: 29.7 µM

Q: What about the TGI (UO-31 renal) of the same compound?
A: 31.9 µM

Q: And the TGI (NCI-H23 lung)?
A: 31.5 µM

Q: What about the TGI (SK-MEL-28 melanoma) of the same compound?
A: > 100 µM

Q: What about the TGI (OVCAR-3 ovarian) of the same compound?
A: 40.6 µM
